Data published in ChEMBL document CHEMBL1201862, “PubChem BioAssay data set” (2004).
The source made the active and inactive calls.

Tests used:
[1] = target: T1, Heat shock factor protein 1 (Mus musculus, UniProt P38532); test: inhibition of MG132-induced HSE-luciferase signal, confirmation, cell-based, NIH3T3, luminescence, dose retest (AID 2382); type: functional;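 also: NIH3T3 fibroblasts with HSF1-driven luciferase reporter stressed by proteasome inhibitor MG132; luminescence from HSF1-driven luciferase expression after 8 hours of MG132 stress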
T1 sequence (P38532 whole entry): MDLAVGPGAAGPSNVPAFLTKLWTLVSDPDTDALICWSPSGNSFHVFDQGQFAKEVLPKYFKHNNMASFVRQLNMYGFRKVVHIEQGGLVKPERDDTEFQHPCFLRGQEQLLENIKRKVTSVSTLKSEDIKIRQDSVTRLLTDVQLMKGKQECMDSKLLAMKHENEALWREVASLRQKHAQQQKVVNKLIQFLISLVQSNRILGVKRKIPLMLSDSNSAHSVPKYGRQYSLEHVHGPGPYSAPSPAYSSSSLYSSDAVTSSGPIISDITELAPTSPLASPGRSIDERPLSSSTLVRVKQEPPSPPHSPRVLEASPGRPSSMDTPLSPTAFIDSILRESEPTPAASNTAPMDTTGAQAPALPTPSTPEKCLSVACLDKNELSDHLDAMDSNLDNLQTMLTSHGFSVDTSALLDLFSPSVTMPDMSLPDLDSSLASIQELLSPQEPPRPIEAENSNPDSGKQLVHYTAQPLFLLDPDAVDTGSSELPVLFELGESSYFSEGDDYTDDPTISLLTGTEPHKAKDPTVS

[2] = target: Alkaline phosphatase, placental type (Homo sapiens, UniProt P05187); test: PLAP enzyme inhibitors, confirmation, biochemical, luminescence (AID 1512); type: functional
[3] = target: T2, Alkaline phosphatase, tissue-nonspecific isozyme (Homo sapiens, UniProt P05186); test: human TNAP enzyme inhibitors, SAR follow-up, biochemical, luminescent, dose response (AID 1056)
T2 sequence (P05186 whole entry): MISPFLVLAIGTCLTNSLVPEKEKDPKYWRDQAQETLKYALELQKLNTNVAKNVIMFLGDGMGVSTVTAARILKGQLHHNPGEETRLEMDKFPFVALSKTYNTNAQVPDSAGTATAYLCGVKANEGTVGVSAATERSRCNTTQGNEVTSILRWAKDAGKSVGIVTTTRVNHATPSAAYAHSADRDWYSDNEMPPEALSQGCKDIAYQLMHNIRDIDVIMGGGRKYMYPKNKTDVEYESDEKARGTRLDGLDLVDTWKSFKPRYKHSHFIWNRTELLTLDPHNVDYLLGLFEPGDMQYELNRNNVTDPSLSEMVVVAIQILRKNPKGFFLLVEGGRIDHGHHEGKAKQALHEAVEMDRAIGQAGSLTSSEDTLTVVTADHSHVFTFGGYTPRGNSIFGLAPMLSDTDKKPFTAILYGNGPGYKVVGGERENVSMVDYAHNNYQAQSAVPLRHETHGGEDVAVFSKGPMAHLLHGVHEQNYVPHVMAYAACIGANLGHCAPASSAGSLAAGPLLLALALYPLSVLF

[4] = target: T3, Microphthalmia-associated transcription factor (Homo sapiens, UniProt O75030); test: TRPM1 promoter luciferase signal decrease, dose response, MITF inhibitor project, cell-based, SK-MEL-5, cherry-picked, set 3 (AID 493073); type: functional
T3 sequence (O75030 whole entry): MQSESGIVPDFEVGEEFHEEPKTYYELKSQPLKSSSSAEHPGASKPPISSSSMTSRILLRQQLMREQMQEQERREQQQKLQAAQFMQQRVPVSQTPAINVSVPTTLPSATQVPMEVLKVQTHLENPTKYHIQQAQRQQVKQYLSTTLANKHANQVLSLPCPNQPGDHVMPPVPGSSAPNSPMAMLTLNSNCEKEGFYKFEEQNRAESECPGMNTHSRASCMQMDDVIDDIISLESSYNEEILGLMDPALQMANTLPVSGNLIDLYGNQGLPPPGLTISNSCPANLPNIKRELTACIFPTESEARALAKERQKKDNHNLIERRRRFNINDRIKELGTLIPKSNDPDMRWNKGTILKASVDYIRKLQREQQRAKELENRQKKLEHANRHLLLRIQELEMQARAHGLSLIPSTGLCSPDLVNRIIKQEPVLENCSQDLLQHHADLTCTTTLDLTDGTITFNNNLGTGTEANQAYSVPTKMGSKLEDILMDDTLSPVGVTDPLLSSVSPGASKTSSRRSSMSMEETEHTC

[5] = target: T4, Rac GTPase-activating protein 1 (Homo sapiens, UniProt Q9H0H5); test: MgcRacGAP GTPase-activating activity inhibitors, confirmation, biochemical, ADP Hunter fluorescence, primary and confirmatory (AID 624330); type: functional
T4 sequence (Q9H0H5 whole entry): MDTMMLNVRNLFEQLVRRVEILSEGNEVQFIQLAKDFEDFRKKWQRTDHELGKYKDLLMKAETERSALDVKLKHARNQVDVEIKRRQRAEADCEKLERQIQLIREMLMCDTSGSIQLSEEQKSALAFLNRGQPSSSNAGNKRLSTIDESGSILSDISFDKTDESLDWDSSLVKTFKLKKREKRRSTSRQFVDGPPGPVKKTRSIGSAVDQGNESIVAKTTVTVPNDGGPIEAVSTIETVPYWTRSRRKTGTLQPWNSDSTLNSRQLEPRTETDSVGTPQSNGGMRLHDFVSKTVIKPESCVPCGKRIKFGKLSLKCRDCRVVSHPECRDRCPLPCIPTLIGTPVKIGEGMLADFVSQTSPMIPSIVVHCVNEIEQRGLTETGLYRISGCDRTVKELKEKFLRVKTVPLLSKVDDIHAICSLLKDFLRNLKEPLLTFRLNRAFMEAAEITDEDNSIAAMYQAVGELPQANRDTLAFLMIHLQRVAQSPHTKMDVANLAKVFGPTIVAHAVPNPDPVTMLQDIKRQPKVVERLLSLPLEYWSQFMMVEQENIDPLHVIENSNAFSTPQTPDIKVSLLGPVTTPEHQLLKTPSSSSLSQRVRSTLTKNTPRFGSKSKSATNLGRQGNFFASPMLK

[6] = target: T5, Tyrosine-protein phosphatase non-receptor type 7 (Homo sapiens, UniProt P35236); test: SAR analysis of chemical inhibitors of HePTP using a Fluorescent assay - Set 2. [Related pubchem assays (depositor defined):AID1059, AID1077, AID1661, AID2085, AID521]; type: functional
T5 sequence (P35236 whole entry): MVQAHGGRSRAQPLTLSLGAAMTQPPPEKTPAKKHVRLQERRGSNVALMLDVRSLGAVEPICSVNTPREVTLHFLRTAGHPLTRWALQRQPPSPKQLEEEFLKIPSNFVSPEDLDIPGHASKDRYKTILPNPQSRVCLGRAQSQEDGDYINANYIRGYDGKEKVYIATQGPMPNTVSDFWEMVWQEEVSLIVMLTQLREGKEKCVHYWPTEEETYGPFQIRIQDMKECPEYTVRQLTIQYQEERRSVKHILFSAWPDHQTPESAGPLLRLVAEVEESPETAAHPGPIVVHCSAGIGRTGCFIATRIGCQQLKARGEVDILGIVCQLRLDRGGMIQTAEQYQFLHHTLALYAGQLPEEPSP

[7] = target: Dual specificity protein phosphatase 3 (Homo sapiens, UniProt P51452); test: SAR VHR1 Fluorescent Assay for In Vitro dose response studies Set 2. [Related pubchem assays (depositor defined):AID1654, AID1661, AID1878]; type: functional
Bcl-2-related protein A1 = target: T6, Bcl-2-related protein A1 (Mus musculus, UniProt Q07440); type: functional;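 also: confirmatory dose–response counterscreen on Bfl-1, used to check hits from a UBC13 polyubiquitin inhibitor campaign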
T6 sequence (Q07440 whole entry): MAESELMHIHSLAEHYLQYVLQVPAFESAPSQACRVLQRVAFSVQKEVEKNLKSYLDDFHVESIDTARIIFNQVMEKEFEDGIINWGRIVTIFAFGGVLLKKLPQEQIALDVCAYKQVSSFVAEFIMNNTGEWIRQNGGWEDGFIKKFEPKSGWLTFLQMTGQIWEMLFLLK

[8] = target: T7, Ubiquitin-conjugating enzyme E2 N (Homo sapiens, UniProt P61088); type: functional
T7 sequence (P61088 whole entry): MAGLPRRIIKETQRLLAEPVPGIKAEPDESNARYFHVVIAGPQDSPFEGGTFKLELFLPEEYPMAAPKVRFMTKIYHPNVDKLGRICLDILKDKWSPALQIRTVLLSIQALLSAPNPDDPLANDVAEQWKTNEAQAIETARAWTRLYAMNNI

[9] = target: T7, Ubiquitin-conjugating enzyme E2 N; type: functional; remark: listed apart in the source
[10] = target: E3 ubiquitin-protein ligase XIAP (Homo sapiens, UniProt P98170); test: Counter Screen using XIAP-Bir3 for Chemical Antagonists of Bir1/2 domains of IAP-family anti-apoptotic proteins. [Related pubchem assays (depositor defined):AID1018, AID1449, AID1514, AID1638, AID1749, AID1750, AID488957, AID488963]
[11] = Luminescence Cell-Based Dose Retest to Confirm Inhibitors of Cancer Stem Cells. [Related pubchem assays (depositor defined):AID2717, AID2721]; type: functional; conditions: Homo sapiens
[12] = target: Eukaryotic translation initiation factor 4E (Mus musculus, UniProt P63073); test: eIF4E–eIF4G protein interaction inhibitors, dose response, biochemical, TR-FRET (AID 855); type: functional;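 also: potency for disrupting eIF4E binding to eIF4GI seen as loss of FRET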
Chain of Eukaryotic translation initiation factor 4E (P63073 whole entry): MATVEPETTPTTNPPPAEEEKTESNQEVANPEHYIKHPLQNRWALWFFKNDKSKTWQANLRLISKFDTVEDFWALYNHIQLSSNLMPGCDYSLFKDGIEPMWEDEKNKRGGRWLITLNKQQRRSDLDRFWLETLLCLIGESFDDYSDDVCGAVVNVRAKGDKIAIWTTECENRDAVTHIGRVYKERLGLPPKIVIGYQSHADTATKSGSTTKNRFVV

Chain of Dual specificity protein phosphatase 3 (P51452 whole entry): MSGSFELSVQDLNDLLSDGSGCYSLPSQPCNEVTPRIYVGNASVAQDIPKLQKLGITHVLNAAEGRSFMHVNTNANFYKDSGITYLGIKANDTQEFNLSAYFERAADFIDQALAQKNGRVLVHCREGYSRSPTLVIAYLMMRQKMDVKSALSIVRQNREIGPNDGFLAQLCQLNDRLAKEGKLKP
Chain of E3 ubiquitin-protein ligase XIAP (P98170 whole entry): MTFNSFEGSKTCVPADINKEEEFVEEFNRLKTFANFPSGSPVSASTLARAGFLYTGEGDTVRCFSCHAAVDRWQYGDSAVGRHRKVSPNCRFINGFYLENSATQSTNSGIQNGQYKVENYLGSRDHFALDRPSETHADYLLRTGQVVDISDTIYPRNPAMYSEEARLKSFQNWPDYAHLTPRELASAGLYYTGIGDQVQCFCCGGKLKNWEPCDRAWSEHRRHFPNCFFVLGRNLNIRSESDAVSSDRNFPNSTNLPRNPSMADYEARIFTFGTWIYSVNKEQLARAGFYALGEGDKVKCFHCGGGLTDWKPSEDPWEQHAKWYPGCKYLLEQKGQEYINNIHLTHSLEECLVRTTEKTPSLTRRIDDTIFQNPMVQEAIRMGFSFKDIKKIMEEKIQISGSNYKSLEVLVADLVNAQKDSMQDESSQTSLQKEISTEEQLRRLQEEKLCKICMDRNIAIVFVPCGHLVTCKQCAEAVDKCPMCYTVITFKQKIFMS
Chain of Alkaline phosphatase, placental type (P05187 whole entry): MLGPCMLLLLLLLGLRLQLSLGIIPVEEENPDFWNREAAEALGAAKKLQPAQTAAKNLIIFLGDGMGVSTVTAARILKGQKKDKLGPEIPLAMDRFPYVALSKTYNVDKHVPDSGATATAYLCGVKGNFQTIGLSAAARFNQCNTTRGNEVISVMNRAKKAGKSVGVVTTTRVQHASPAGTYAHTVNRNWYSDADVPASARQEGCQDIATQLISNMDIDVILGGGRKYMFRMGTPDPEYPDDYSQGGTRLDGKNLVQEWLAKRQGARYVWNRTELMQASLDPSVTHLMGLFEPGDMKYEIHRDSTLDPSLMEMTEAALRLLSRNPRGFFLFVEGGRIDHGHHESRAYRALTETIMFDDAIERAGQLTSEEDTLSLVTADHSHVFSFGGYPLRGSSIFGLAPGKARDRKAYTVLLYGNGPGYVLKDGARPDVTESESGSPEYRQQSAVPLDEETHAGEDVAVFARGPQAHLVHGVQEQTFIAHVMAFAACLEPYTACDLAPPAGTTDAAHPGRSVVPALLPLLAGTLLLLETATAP

Nc1ccc2c(c1)OC1(CCCC1)O2
EC50 [1]: 4.26 µM (active) | IC50 [2]: > 100 µM (inactive) | IC50 [3]: > 100 µM (inactive) | AC50 [4]: 11.2 µM (active) | IC50 [5]: 31.5 µM (active)

Oc1ccc(CCNC(=S)Nc2ccc(Cl)cc2Cl)cc1O
IC50 [6]: 18.8 µM (active) | IC50 [7]: 30.5 µM (active)

CSCCC(NC(=O)COc1ccccc1)C(=O)N1CCC(C(N)=O)CC1 (stereo not given)
IC50 (Bcl-2-related protein A1): > 20 µM (inactive) | IC50 [8]: 12.3 µM (active) | IC50 [9]: > 20 µM (inactive)

CCCOc1ccc(C(=S)NCc2ccc(F)c(C(F)(F)F)c2)cc1
IC50 [6]: 39.2 µM (active) | IC50 [7]: 71.7 µM (active)

CC(=O)Nc1ccc(/N=C/c2c(O)c(C(=O)Nc3ccccc3)cc3ccccc23)cc1
IC50 [10]: > 20 µM (inactive) | AC50 [11]: 1.01 µM (active) | IC50 [12]: 50 µM (inactive)
